Consider seven molecules from publication PMC7797697 (Theranostics, 2021).

As a reminder, the IC50 is the midpoint of a concentration-inhibition curve. High values mean weaker potency, low ones greater potency.

Where “and” joins values, the source holds several entries; their conditions need not be identical. Equal entries are not always repeated.

For assay [1], the system named is MDA-MB-231 cells. Briefly: High-content epigenetic inhibitor screen, quantification of living cells. The class given is cell-based, human. The conditions noted are these: 3 μM, 72 h. The text has this:
(§1) HeLa, MCF-7 and MDA-MB-231 cell lines were purchased from the American Type Culture Collection. MCF-10A, T-47D, PANC-1, A549, HCT-15, Caco-2, SMMC-7721, SH-SY5Y, HUVEC and PC-3 cell lines were obtained from the Chinese Academy of Medical Sciences. MEF was isolated from pregnant mice at 14‒16 days of pregnancy. Primary breast cancer cells were isolated from breast cancer patients. All media including Dulbecco Modified Eagle Medium (DMEM), RPMI 1640 Medium and DMEM/Nutrient Mixture F-12 were supplemented with 10% fetal bovine serum (FBS), 100 units/mL penicillin, and […] streptomycin (Gibco, Waltham, MA, USA). Cells were cultured in a humidified incubator equilibrated with 5% CO2 at 37 °C. Cells were treated for 24-72 h in adherent conditions with compounds from an epigenetic small molecule inhibitor library (L1200, Topscience, Shanghai, China).
(§2) Statistical analyses of all data were performed using GraphPad Prism (version 8.0, Graph Pad Software Inc., San Diego, CA, USA). All the data were analyzed by Student's t-test or one-way ANOVA. The Z-Score was chosen to evaluate the results and experimental deviation. Quantitative data are presented as the mean ± SD. The asterisk (*) denotes statistically significant difference (P < 0.05). IC50 was calculated using a four-parameter fit with variable slope in GraphPad Prism.
To identify potential anti-tumor inhibitors, we screened an epigenetic small molecule inhibitor library for anti-tumor activity in breast cancer cells. […] The selection strategy mainly comprised three stages, in which different concentrations (high to low) of inhibitors screened with a high-content analysis instrument were identified using cancer cell lines in a 96-well plate format (Figure 1A). For the first step, we treated cells with a high concentration of compounds to exclude compounds ineffective in killing cancer cells. MDA-MB-231 cells, a human breast cancer cell line, were treated with 167 epigenetic compounds (30 μM each) for 48 h, and then analyzed by high-content analysis, where changes in cell morphology relative to the control (dimethyl sulfoxide, DMSO) would indicate modulation of cancer cells by compound treatment. […] At the second step, we treated the cells with the 60 compounds at a median concentration (3 μM) for 72 h to screen for inhibitors that can kill cancer cells with high efficiency.

Assay [2] concerns Primary breast tumor cells. Briefly: CCK8 assay IC50. Format: cell-based, human. Conditions: breast cancer, 72 h.
Text: as §1
(§3) Cell viability was then detected using a CCK8 assay (MedChemExpress, USA) according to the manufacturer's instructions.
(§4) Statistical analyses of all data were performed using GraphPad Prism (version 8.0, Graph Pad Software Inc., San Diego, CA, USA). All the data were analyzed by Student's t-test or one-way ANOVA. The Z-Score was chosen to evaluate the results and experimental deviation. Quantitative data are presented as the mean ± SD. […] IC50 was calculated using a four-parameter fit with variable slope in GraphPad Prism.

Assay [3] has as its system MDA-MB-231 cells. Briefly: Intracellular calcium measurement (Fluo-4-AM). The class given is cell-based, human. The conditions noted are these: thrombin stimulation, different concentrations of the pan-HDAC inhibitors. Here is the method: After treatment, the cells were digested and seeded in 96-well black plates (Corning Costar, Cambridge, MA, USA) and cultured for 20 h. For measurement of [Ca^2+]i, the cells were labeled with Fluo-4-AM in serum-free medium for half an hour at room temperature. After washing with Dulbecco's Phosphate Buffered Saline (D-PBS), cells were overlaid in Hank's balanced salt solution (5.4 mM KCl, 1 mM MgCl2, 20 mM hydroxyethyl piperazineethanesulfonic acid (HEPES), 120 mM NaCl, 10 mM glucose, 0.2 mM Ethylenebis(oxyethylenenitrilo)tetraacetic acid (EGTA)). Continuous fluorescence intensity was detected after thrombin was added as a calcium agonist by an automated sampler. Response over baseline was assessed as a relative measure of [Ca^2+]i.
As previously stated, studies have shown that the Ca^2+ signals can modulate cancer progression by regulating migration, proliferation, cell stress, and apoptosis.
Background: Calcium assays in cells follow changes in intracellular calcium, usually with a dye or a luminescent sensor.

For assay [4], the system named is MEF. Briefly: CCK8 assay IC50. The class given is cell-based, mouse. Conditions: normal cells, 72 h.
Text: as §1, §3, §4
(Tetrazolium assays rely on reduction of a dye to a coloured formazan, in cell work by metabolically active cells.)

Assay [5] relates to MDA-MB-231. Briefly: CCK8 assay IC50. Format: cell-based, human. Conditions: MDA-MB-231, breast cancer, 72 h, CCK8. Here is the method:
as §3, §2

Assay [6] has as its system HUVEC. Briefly: CCK8 assay IC50. The class given is cell-based, human. Conditions: normal cells, 72 h. Here is the method: as §3, §2
For assay [7], the system named is HCT-15. Briefly: CCK8 assay IC50. The class given is cell-based. The conditions noted are these: HCT-15, colon cancer, 72 h. Here is the method: as §3, §2
For assay [8], the system named is SMMC-7721. Briefly: CCK8 assay IC50. The class given is cell-based. The conditions noted are these: SMMC-7721, liver cancer, 72 h. Here is the method:
as §3, §2

Assay [9] concerns T-47D. Briefly: CCK8 assay IC50. Format: cell-based. The conditions noted are these: breast cancer, 72 h. Here is the method:
as §3, §2

The subject of assay [10] is SH-SY5Y. Briefly: CCK8 assay IC50. Format: cell-based. Conditions: neuroblastoma, 72 h. Here is the method: as §3, §2
Assay [11] relates to PC-3. Briefly: CCK8 assay IC50. The class given is cell-based. Conditions: PC-3, prostatic cancer, 72 h. Here is the method: as §3, §2
Assay [12] deals with PANC-1. Briefly: CCK8 assay IC50. Format: cell-based. The conditions noted are these: PANC-1, pancreatic cancer, 72 h. Here is the method: as §3, §2
Assay [13] deals with Caco-2. Briefly: CCK8 assay IC50. Format: cell-based. Conditions: Caco-2, colon cancer, 72 h. Here is the method:
as §3, §2

The subject of assay [14] is A549. Briefly: CCK8 assay IC50. Format: cell-based. The conditions noted are these: A549, lung cancer, 72 h. Here is the method: as §3, §2
The test system of assay [15] is MCF-7. Briefly: CCK8 assay IC50. Conditions: MCF-7, breast cancer, 72 h, CCK8. Format: cell-based. Here is the method:
as §3, §2

The subject of assay [16] is HeLa. Briefly: CCK8 assay IC50. Format: cell-based. The conditions noted are these: cervical cancer, 72 h. Here is the method: as §3, §2

As to `Cc1cc(Nc2nc(N[C@@H](C)c3ccc(F)cc3)c(C#N)cc2F)[nH]n1` [AZ960], the “effect on cell survival” value in assay [1] is on record as “discernible effects on cell survival”.

Consider `C#Cc1cccc(Nc2ncnc3cc(OC)c(OCCCCCCC(=O)NO)cc23)c1` [CUDC-101], for which the “effect on cell survival” value in assay [1] is recorded as “discernible effects on cell survival”.

Consider `CC(/C=C/C(=O)NO)=C\[C@@H](C)C(=O)c1ccc(N(C)C)cc1` [TSA, trichostatin A], for which the IC50 is 2320 nM in assay [2]; < 1000 nM and 891 nM in [4]; 1000 nM in [5]; < 1000 nM and 830 nM in [6]; 2300 nM in assay [7]; 3270 nM in [8]. Besides, the IC50 in [9] was determined as 905 nM; in [10], 720 nM; in assay [11], 1310 nM; in assay [12], 1430 nM; in assay [13], 3000 nM; in assay [14], 1310 nM. The half-inhibitory concentration (IC50) in assay [15] came to 922 nM; in [16], 572 nM. In addition, the “frequency and amplitude of [Ca^2+]i oscillations” value (“frequency and amplitude” below) in assay [3] was “did not alter the frequency and amplitude”. In assay [1], the “effect on cell survival” value is reported as “discernible effects on cell survival”.

In the case of `O=C(/C=C/c1cccc(S(=O)(=O)Nc2ccccc2)c1)NO` [belinostat], the “effect on cell survival” value in assay [1] is listed as “discernible effects on cell survival”.

`Cc1[nH]c2ccccc2c1CCNCc1ccc(/C=C/C(=O)NO)cc1` [panobinostat]: in assay [3], the “frequency and amplitude” value is “did not alter the frequency and amplitude”.

For the molecule `CCCCc1nc2cc(/C=C/C(=O)NO)ccc2n1CCN(CC)CC` [pracinostat], in [1], the “effect on cell survival” value is on record as “discernible effects on cell survival”.

With `O=C(CCCCCCC(=O)Nc1ccccc1)NO` [vorinostat], the “frequency and amplitude” value in [3] is “did not alter the frequency and amplitude”. Besides, the “effect on cell survival” value in [1] is “discernible effects on cell survival”.
